Patent US10189875B2, “Anti-cancer peptide and use thereof” (ENSOL BIOSCIENCES INC., priority 2015, dated 2019)

Tests used:
[1] = system: 4T1 mouse breast cancer cells; test: Lung metastasis model with 4T1 cells, count of metastatic tumor nodules; assay type: in vivo, female BALB/c mice; conditions: FIG. 2; for number of tumor nodules (lung): caudal vein, three times a week for three weeks, autopsy on 21st day, vs negative control
Protocol: Whether the metastasis of cancer cells was inhibited by the peptide of Example 1 was evaluated experimentally. Specifically, in order to evaluate the inhibitory effect of the peptide of Example 1 on the metastasis of cancer cells, testing was performed using a lung metastasis model with 4T1 mouse breast cancer cells (ATCC CRL-2539, USA). The peptide of Example 1 was injected into the caudal vein of the tail of female BALB/c mice (SPF, SLC/Japan). The test group was divided into three groups according to the administration concentration; low concentration [40/2 g/head], middle concentration [80/2 g/head], and high concentration 1120, ug/headl. The negative control group was treated in the same manner as the test group, with the exception that the peptide of Example 1 was not administered. On the day after first administration, 4T1 cells (1.5×10^4 cells/head) were injected into the mouse tail caudal vein. After 1 hr, the peptide of Example 1 was secondarily administered. The administration of the peptide was performed three times a week (Monday, Wednesday, and Friday) for a total of three weeks ranging from the second administration day to the final administration day. The weight of the mouse was measured two times a week, and an autopsy was performed on the 21st day after the injection of cancer cells. The lung tissue was excised, stained with a Bouin's solution, and fixed, and then the number of metastatic tumor nodules was counted. Also, a group (a normal group), treated in the same manner as the test group, was prepared as a control group, with the exception that neither the peptide of Example 1 nor 4T1 cells were added. The graph of FIG. 2 is plotted with an x-axis for each group and a y-axis for the number of tumor nodules. As such, n designates the number of individuals in each group, and P designates the significance probability.

[2] = system: SNU-790 thyroid cancer cells; test: Transwell invasion assay (TGF-beta1-induced invasion of cancer cells); assay type: cell-based; conditions: invasion increased by 10 ng/ml TGF-beta1; peptide at 40 and 100 [1M; 2 days culture; FIG. 1
Protocol: Whether the invasion of cancer cells was inhibited by the peptide of Example 1 was evaluated experimentally. Specifically, in order to evaluate the effect of the peptide of Example 1 on inhibiting the invasion of cancer cells, a Transwell invasion assay was performed. Growth factor reduced Matrigel (BD Biosciences, Franklin Lakes, N.J., USA) was diluted at 1:1 with a medium [RPMI 1640 medium (Welgene Inc., Korea)] and 70 fek thereof was added to the top chamber of the Transwell insert (Corning cat#3422, Tewksbury Mass., USA), followed by a coating process for 1 hr in a CO2 incubator at 37° C. 500 fek of a medium [RPMI 1640 medium (Welgene Inc., Korea)] containing 10% fetal bovine serum (FBS, Cellgro cat#35-015-CV, USA) was added to the bottom chamber, after which the test group was added with 10 ng/ml of TGF-betal (PromoKine, Germany). The coated top chamber was mounted to the bottom chamber, and 100 ick of RPMI 1640 medium containing 0.5% FBS with 20000 SNU-790 thyroid cancer cells (Korean Cell Line Bank) was added to the top chamber. In this way, a negative control group and two test groups were prepared. […]
The test groups, the control group, and the negative control group were cultured in a CO2 incubator for 2 days at 37° C. […] Four randomly selected regions were photographed and the number of cells in these regions was counted, averaged and graphed. […]

[3] = system: B16-BL6 mouse melanoma cells; test: Survival rate in animal model with B16-BL6 melanoma cells; assay type: in vivo, male C57BL/6J mice; conditions: FIG. 4
Protocol: (§1) The anticancer effect of the peptide of Example 1 was evaluated experimentally. Specifically, in order to evaluate the effect of the peptide of Example 1 on surviving individuals suffering from cancer, the survival rate was measured using an animal model with B16-BL6 mouse melanoma cells (Korean Cell Line Bank, Korea).
B16-BL6 cells {1×10^5 cells/head} were subcutaneously injected into 7-week-old male C57BL/6J mice (Orientbio Inc., Korea). After one week, the peptide of Example 1 was intraperitoneally administered. The test group was divided into three groups according to the administration concentration; low concentration {40, ttg/head}, middle concentration {80, ttg/head}, and high concentration {120, ttg/head}. The negative control group was treated in the same manner as the test group, with the exception that the peptide of Example 1 was not administered. The administration was repeated two times a week for two weeks from the first administration day and then once a week for an additional four weeks, and the peptide was administered a total of eight times. To measure the survival rate, the survival rate for each group was observed and recorded. In the graph of FIG. 4, showing the survival rate, the x-axis represents the number of days since injection of the cancer cells, and the y-axis represents the survival rate (%). […]

[4] = system: 4T1 mouse breast cancer cells; test: Survival rate in the 4T1 lung metastasis model; assay type: in vivo, female BALB/c mice; conditions: FIG. 3
Protocol: Whether the metastasis of cancer cells was inhibited by the peptide of Example 1 was evaluated experimentally. Specifically, in order to evaluate the inhibitory effect of the peptide of Example 1 on the metastasis of cancer cells, testing was performed using a lung metastasis model with 4T1 mouse breast cancer cells (ATCC CRL-2539, USA). The peptide of Example 1 was injected into the caudal vein of the tail of female BALB/c mice (SPF, SLC/Japan). The test group was divided into three groups according to the administration concentration; low concentration [40/2 g/head], middle concentration [80/2 g/head], and high concentration 1120, ug/headl. The negative control group was treated in the same manner as the test group, with the exception that the peptide of Example 1 was not administered. […] The weight of the mouse was measured two times a week, and an autopsy was performed on the 21st day after the injection of cancer cells. The lung tissue was excised, stained with a Bouin's solution, and fixed, and then the number of metastatic tumor nodules was counted. […]
as §1, with “prepared in the same manner as in Example 3. […]” for “with B16-BL6 mouse melanoma cells (Korean Cell Line Bank, Korea).”

[5] = low, middle and high concentration groups compared

## QLHLD [Example 1]
[1]; high concentration (120 ug/head)
  number of tumor nodules (lung): significantly (P<0.001) reduced
[1]; [5]
  inhibitory effect of cancer metastasis, comparison among dose groups: highest in the test group in which the peptide was administered at the middle concentration
[1]; middle concentration [80/2 g/head]
  number of tumor nodules (lung): significantly (P<0.001) reduced
[2]
  invasion of cancer cells (number of invading cells): inhibited in a concentration-dependent manner
[3]; [5]
  survival rate, comparison among dose groups: highest in the test group in which the peptide was administered at the middle concentration
[3]; test groups (low 40, middle 80, high 120 ttg/head), intraperitoneal, eight administrations, vs negative control
  survival rate: some individuals survived even after the death of the negative control group
[4]; [5]
  survival rate, comparison among dose groups: highest in the test group in which the peptide was administered at the middle concentration
[4]; middle and high concentrations, caudal vein, vs negative control
  survival rate: some individuals survived even after the death of the negative control group
